Read-outs that look alike come from different tables or passages of the source.
Key:
[1] = system: murine renal carcinoma (Renca) tumor; experiment: Efficacy study in Renca murine RCC tumor model; type: in vivo, mouse; settings: for % TGI (tumor growth inhibition) / Objective Responses (ORs): 33 days after implantation; for % TGI (tumor growth inhibition): sunitinib 120 mg/kg QD×14 PO, sorafenib 200 mg/kg QD×14 PO, 4H2 10 mg/kg Q4D×4 IP; for Objective Responses (ORs): responders/8 mice
Text: Female 8-12 weeks old Balb/c and C57/BL6 mice (Harlan Laboratories, Federick, MD) were used in all studies. Mice were housed in sterile microisolator cages and administered sterile food and water ad libitum, unless otherwise specified.
The murine renal carcinoma (Renca) and murine colon adenocarcinoma (CT-26) tumor cell lines were maintained in vitro for less than 10 passages.
Tumor cells were implanted subcutaneously (SC). When the mean tumor volume reached about 100 mm^3, mice were randomized into groups of 8 animals. Vehicle (control), sunitinib (120 mg/kg) or sorafenib (200 mg/kg) was orally administered once daily for 14 days (QD×14, PO). MAb 4H2 was administered at 10 mg/kg every 4 days for a total of 4 treatments (Q4D×4) intraperitoneally (IP). Tumors were measured twice weekly, and the tumor volume was calculated as length×(width^2/2).

[2] = system: renal cell carcinoma (RCC); settings: cited from earlier work; for OS (overall survival): phase 3, poor-risk patients with advanced RCC (Hudes et al., 2007)
PD-1 = target: T1, PD-1 (Homo sapiens, UniProt Q15116); settings: 15 subjects, 0.3 to 10 mg/kg, across all doses; cited from earlier work
T1 construct: indicate that PD-1 occupancy appears to be dose-independent in this dose range; endogenous in cells

[3] = dosing up to 10 mg/kg every two weeks; cited from earlier work
[4] = system: tumor-infiltrating immune cells in Renca tumors; experiment: Immune cell infiltration of Renca tumors (immunohistochemistry, flow cytometry); type: in vivo, mouse; settings: versus control group
Description: Immunohistochemistry and flow cytometry analyses were used to assess immune cell infiltration of tumors.
Frozen sections were fixed in an acetone/methanol mix and rinsed in phosphate-buffered saline (PBS). Sections were blocked for endogenous peroxidase and the primary antibodies (anti-CD8, anti-CD4, anti-FoxP3, and anti-PD-L1) were added and incubated overnight. Chromogenic development was done using a brown polymer-based detection system (Biocare Medical), with hematoxylin used as a blue counter stain for visualization of cellular nuclei.
Tumor-infiltrating immune cells were isolated and prepared as a single-cell suspension, then stained and analyzed via flow cytometry for expression of T-cell subsets (regulatory and activated) and myeloid cells (i.e., for expression of CD3, CD4, CD8, FoxP3, CD25, and CD69).

T1 sequence (Q15116 25-288): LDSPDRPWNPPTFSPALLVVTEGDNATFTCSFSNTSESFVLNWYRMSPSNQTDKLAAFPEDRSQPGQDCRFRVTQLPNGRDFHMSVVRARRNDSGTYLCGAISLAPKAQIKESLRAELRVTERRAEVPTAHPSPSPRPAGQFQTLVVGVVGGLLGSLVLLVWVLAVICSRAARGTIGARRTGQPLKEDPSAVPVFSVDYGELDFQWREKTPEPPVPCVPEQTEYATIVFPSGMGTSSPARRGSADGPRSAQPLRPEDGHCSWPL

In the case of CCN(CC)CCNC(=O)c1c(C)[nH]c(/C=C2\C(=O)Nc3ccc(F)cc32)c1C [Sunitinib], the “% TGI (tumor growth inhibition)” value [1] is reported as 85% and the “Objective Responses (ORs)” value [1] is reported as 0/8.
For CO[C@H]1C[C@@H]2CC[C@@H](C)[C@@](O)(O2)C(=O)C(=O)N2CCCC[C@H]2C(=O)O[C@H]([C@H](C)C[C@@H]2CC[C@@H](OC(=O)C(C)(CO)CO)[C@H](OC)C2)CC(=O)[C@H](C)/C=C(\C)[C@@H](O)[C@@H](OC)C(=O)[C@H](C)C[C@H](C)/C=C/C=C/C=C/1C [temsirolimus], the “OS (overall survival)” value [2] is given as 10.9 months.
In the case of IFNα, the “OS (overall survival)” value [2] is given as 7.3 months.
In the case of nivolumab, the ORR ([2]; 0.3 mg/kg, Phase 2 metastatic RCC (Motzer et al., 2014)) is listed as 20%, the ORR ([2]; 0.3 mg/kg, pretreated with 1-3 prior anti-angiogenic therapies (Choueiri et al., 2014)) is listed as 9% and the ORR ([2]; 2 mg/kg, Phase 2 metastatic RCC (Motzer et al., 2014)) is listed as 22%. The ORR ([2]; 2 mg/kg, pretreated with 1-3 prior anti-angiogenic therapies (Choueiri et al., 2014)) was 23%, the ORR ([2]; 10 mg/kg, Phase 2 metastatic RCC (Motzer et al., 2014)) was 20% and the ORR ([2]; 10 mg/kg, pretreated with 1-3 prior anti-angiogenic therapies (Choueiri et al., 2014)) was 22%. The ORR ([2]; 10 mg/kg, treatment-naïve patients (Choueiri et al., 2014)) was 13%, the ORR ([2]; nivolumab 1 or 10 mg/kg alone, RCC, Phase 1 (WO 2013/173223)) was 28-31% and the “mean PD-1 occupancy rate” value (PD-1) was 85%. The “mean plateau PD-1 occupancy” value (PD-1) was 72% and the “maximum tolerated dose (MTD), monotherapy” value [3] was “without reaching the maximum tolerated does (MTD)”.
In the case of CO[C@H]1C[C@@H]2CC[C@@H](C)[C@@](O)(O2)C(=O)C(=O)N2CCCC[C@H]2C(=O)O[C@H]([C@H](C)C[C@@H]2CC[C@@H](OCCO)[C@H](OC)C2)CC(=O)[C@H](C)/C=C(\C)[C@@H](O)[C@@H](OC)C(=O)[C@H](C)C[C@H](C)/C=C/C=C/C=C/1C [Everolimus], the “improvement in median progression-free survival (PFS) versus placebo” value ([2]; Motzer et al., 2008) is given as 2.1 month and the OS improvement ([2]; versus placebo (Motzer et al., 2008)) is given as “no OS improvement”.
For CNC(=O)c1cc(Oc2ccc(NC(=O)Nc3ccc(Cl)c(C(F)(F)F)c3)cc2)ccn1 [Sorafenib], the “% TGI (tumor growth inhibition)” value [1] was 62%, the “activity as monotherapy in Renca model” value ([1]; monotherapy) was “active” and the “Objective Responses (ORs)” value [1] was 0/8. For the same compound, the “infiltration of CD4+ and CD8+ T cells into tumor (IHC)” value [4] was “increased T-cell infiltration into the tumor was not observed” and the response rate ([2]; randomized Phase 2, 128 treatment-naïve mRCC subjects (Procopio et al., 2011)) was 15%.
For “ipilimumab: fully human, IgG1 monoclonal Ab that blocks the binding of CTLA-4 to its B7 ligands”, the ORR ([2]; Phase 2 metastatic RCC, cohort A: 3 mg/kg loading dose then 1 mg/kg every 3 wk (Yang et al., 2007)) is listed as 5% and the ORR ([2]; Phase 2 metastatic RCC, cohort B: 3 mg/kg every 3 wk for all doses (Yang et al., 2007)) is listed as 12.5%.

From patent publication US20250297028A1, “TREATMENT OF RENAL CANCER USING A COMBINATION OF AN ANTI-PD-1 ANTIBODY AND ANOTHER ANTI-CANCER AGENT” (BRISTOL-MYERS SQUIBB COMPANY, priority 2014, published 2025)
